The test system of this series is α-SMA mRNA. The experiment in a line: Inhibition of α-SMA mRNA induction by TGF-β1 in HLF cells. Format: cell-based, human. The settings on record: for Inhibition of upregulation of α-SMA mRNA by TGF-β1: 10 nM siNA, FIG. 12. The procedure: A549 cells (ECACC, 86012804) were maintained in Dulbecco's Modified Eagle Medium (DMEM) containing 10% Fetal Calf Serum (FCS), 2 mM L-glutamine, 100 U/ml penicillin and 100 μg/ml streptomycin (all from GIBCO). Sub-confluent cultures (2.7×10^3 cells/cm^2) were seeded in collagen-coated multi-well plates (Becton Dickenson) and grown for three days. Cells were quiesced using the same medium containing 0.5% FCS, for 24 hours prior to stimulation with cytokines. Cells were incubated with 0-10 ng/ml TGF-(31 for the periods indicated. Normal Human Lung Fibroblasts (HLFs) were obtained from Lonza and maintained in Fibroblast Growth Medium supplemented with growth factors (Lonza #CC-3132); final serum concentration of medium was 2%. HLFs were treated with cytokines in serum-free medium. Normal Human Bronchial Epithelial cells (NHBEs, also obtained from Lonza) were maintained and transfected in Lonza BEBM with SingleQuots (Lonza #CC-3170). All growth factors from the kit were added, except retinoic acid. All cultures were maintained at 37° C. in a humidified incubator with 5% CO2 atmosphere.
Cells were harvested at time points appropriate for the experiment. Supernatants were removed and stored at −70° C. until analysis. Cells were washed using Dulbecco's Phosphate Buffered Saline (DPBS, GIBCO), prior to lysis. RNA lysates for Taqman analysis were produced using Promega RNA lysis buffer. All lysates were stored at −70° C. until use.
Cells were seeded on 96-well tissue culture plates (A549s and NHBEs, collagen-coated plates at densities of 5×10^3 and 1.2×10^4 respectively; HLFs on flat-bottom tissue culture plates, at 1×10^4 cells per well) in 100 μl of growth medium. […] Knockdown is calculated compared to CTGF expression of cells transfected with the universal control siNA.
RNA was isolated using a Biomek 2000 robot and Promega SV 96 Total RNA Isolation kits. cDNA was synthesised using a High Capacity cDNA Reverse Transcription Kit (Applied Biosciences) on a 96-well thermal cycler. […] Plates were analysed using an ABI Taqman RT-PCR machine, and SDS 2.2 Automation Controller software. […]

[invAb] = inverted abasic unit; m = 2'-O-methyl; r = 2'-OH (RNA); f = 2'-fluoro

As to “48048-DC: siNA duplex; sense SEQ ID NO: 61 B GAuAGcAucuuAuAcGAGu TTB; antisense SEQ ID NO: 62 ACUcGuAuAAGAuGcuAucUU (sense GAUAGCAUCUUAUACGAGUTT; antisense ACUCGUAUAAGAUGCUAUCUU; sense: DNA at AGT, 2'-fluoro at CU, [invAb] at 5' end, 3' end, backbone not given here; antisense: sugars from the 5' end rrrfmfmfmmmmfmffmffmm, backbone not given here)”, the “Inhibition of upregulation of α-SMA mRNA by TGF-β1” value was “consistent but not significant knockdown of α-SMA”. With “48042-DC: siNA duplex; sense SEQ ID NO: 49 B GAcAuuAAcucAuuAGAcu TTB; antisense SEQ ID NO: 50 AGUcuAAuGAGuuAAuGucUU (sense GACAUUAACUCAUUAGACUTT; antisense AGUCUAAUGAGUUAAUGUCUU; sense: DNA at AGT, 2'-fluoro at CU, [invAb] at 5' end, 3' end, backbone not given here; antisense: sugars from the 5' end rrrffmmfmmmffmmfmffmm, backbone not given here)”, the “Inhibition of upregulation of α-SMA mRNA by TGF-β1” value was “significantly inhibited the upregulation of α-SMA”. For the same substance, the “α-SMA expression levels relative to untreated cells” value (5 and 10 ng/ml TGF-β1) was “comparable to untreated cells”.

Values taken from patent publication US20120016011A1, “RNA Interference Mediated Inhibition of Connective Tissue Growth Factor (CTGF) Gene Expression Using Short Interfering Nucleic Acid (siNA)” (Merck Sharp & Dohme Corp., priority 2009, published 2012).
